Patent US20060142337A1, “Piperidine derivative and use thereof” (priority 2004, published 2006)
Where a name gives a salt, the structure may show the parent alone.

Experiments:
[1] = test system: urethane anesthetized male guinea pigs; assay: Bladder capacity increasing action in urethane anesthetized guinea pigs; type: in vivo, guinea pig; details: for Changes in bladder capacity (vs before administration, %): mean ± S.E.M.
Experimental: Bladder capacity increasing activity of substance P receptor antagonist (bladder capacity increasing action in urethane anesthetized guinea pigs)
A urinary frequency/urine incontinence suppressing effect of a substance having a substance P receptor antagonistic action was shown in terms of the ability to increase bladder capacity of urethane anesthetized male guinea pigs. After emptying the bladder by suction, saline warmed to 39° C. is infused into the bladder at a constant rate (0.3 mL/min.), until voiding. This procedure was repeated to confirm stable bladder capacity (amount of saline injected before induction of voiding). After confirming a stable response, a compound dissolved in DMSO was intravenously administered and the action was measured. Changes in the bladder capacity after drug administration were measured.

substance P receptor = target: T1, substance P receptor (Homo sapiens, UniProt P25103); assay: Radioligand receptor binding inhibitory activity using receptor from human lymphoblast cells (IM-9); details: [125I]-BHSP binding, receptor from IM-9 cells, 25 C, 30 min
T1 construct: endogenous in cells; host or cells: IM-9 human lymphoblast cells (membrane preparation)
Experimental: Radioligand receptor binding inhibitory activity (Binding inhibitory activity using receptor from human lymphoblast cells (IM-9))
The method of M. A. Cascieri et al., “Molecular Pharmacology 42, p. 458 (1992)” was modified and used. The receptor was. prepared from human lymphoblast cells (IM-9). IM-9 cells (2×10^5 cells/mL) were incubated for 3 days (one liter), which was then subjected to centrifuge for 5 min. at 500×G to obtain cell pellets. The obtained pellets were washed once with phosphate buffer (Flow Laboratories, CAT. No. 28-103-05), which were then homogenized using Polytron homogenizer (“Kinematika”, Germany) in 30 mL of 50 mM Tris-HCl buffer (pH 7.4) containing 120 mM sodium chloride, 5 mM potassium chloride, 2 μg/mL chymostatin, 40 μg/mL bacitracin, 5 μg/mL phosphoramidon, 0.5 mM phenylmethylsulfonyl fluoride, 1 mM ethylenediamine tetra-acetate, which was subjected to centrifuge at 40,000×G for 20 min. The residue was washed twice with 30 mL of the buffer, which was then preserved frozen (−80° C.) as a specimen of the receptor.
The specimen was suspended in a reaction buffer (50 mM Tris-HCl buffer (pH 7.4), 0.02% bovine serum albumin, 1 mM phenylmethylsulfonyl fluoride, 2 μg/mL chymostatin, 40 μg/mL bacitracin and 3 mM manganese chloride) to have protein in the concentration of 0.5 mg/mL of protein and 100 μL portion of the suspension was used in the reaction. After addition of the sample and ^125]-BHSP (0.46 KBq), the reaction was allowed to proceed in 0.2 mL of reaction buffer at […] for 30 min. The amount of nonspecific binding was determined by adding substance P at a final concentration of 2×10^−6 M.
After the reaction, using a cell harvester (290 PHD, Cambridge Technology, Inc, U.S.A.), filtration was carried out through a glass filter (GF/B, Whatman, U.S.A.), which was immersed in 0.1% polyethyleneimine for 24 hrs. and dried. After washing three times with 250 μL of 50 mM Tris-HCl buffer (pH 7.4) containing 0.02% bovine serum albumin, the radioactivity remaining on the filter was. determined with a gamma counter.
The antagonistic activity of each compound obtained in Examples was determined in terms of the concentration necessary to cause 50% inhibition (IC50 value) under the above-described conditions, and the results were shown in Table 14.
The radio ligand means substance P labeled with [^125I].

T1 sequence (P25103 whole entry): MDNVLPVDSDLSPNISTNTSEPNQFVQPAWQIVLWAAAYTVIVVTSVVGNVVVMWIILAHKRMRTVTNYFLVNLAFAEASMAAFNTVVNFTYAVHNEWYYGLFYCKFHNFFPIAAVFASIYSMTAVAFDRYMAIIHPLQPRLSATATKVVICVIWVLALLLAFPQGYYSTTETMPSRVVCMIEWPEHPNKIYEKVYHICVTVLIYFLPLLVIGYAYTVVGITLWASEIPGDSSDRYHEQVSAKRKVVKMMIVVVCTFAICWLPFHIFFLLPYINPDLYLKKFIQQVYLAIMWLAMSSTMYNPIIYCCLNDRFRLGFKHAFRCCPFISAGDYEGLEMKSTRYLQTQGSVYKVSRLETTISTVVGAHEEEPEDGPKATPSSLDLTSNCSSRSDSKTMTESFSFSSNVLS

| IC50 (substance P receptor) | SMILES | further results |
| --- | --- | --- |
| – | C[C@@H](O[C@H]1OCCN(Cc2n[nH]c(=O)[nH]2)[C@H]1c1ccc(F)cc1)c1cc(C(F)(F)F)cc(C(F)(F)F)c1 [MK-869, 5-[[(2R,3S)-2-[(1R)-1-[3,5-bis(trifluoromethyl)phenyl]ethoxy]-3-(4-fluorophenyl)-4-morpholinyl]methyl]-1,2-dihydro-3H-1,2,4-triazol-3-one, reference compound] | Changes in bladder capacity (vs before administration, %) ([1]; Table 15, 0.1 mg/kg intravenous): 14.7 ± 4.8%; Changes in bladder capacity (vs before administration, %) ([1]; Table 15, 0.3 mg/kg intravenous): 49.5 ± 10.3 %; Changes in bladder capacity (vs before administration, %) ([1]; Table 15, 1 mg/kg intravenous): 71.2 ± 16.9 %; voiding pressure ([1]; intravenous administration, urethane anesthetized guinea pigs): without affecting the voiding pressure |
| – | C[C@@H](O[C@@H]1CCNC[C@@H]1c1ccccc1)c1cc(C(F)(F)F)cc(C(F)(F)F)c1.Cl | melting point: 150 to 152 °C |
| – | C[C@H](O[C@H]1CCNC[C@H]1c1ccccc1)c1cc(C(F)(F)F)cc(C(F)(F)F)c1.Cl | melting point: 150 to 152 °C |
| 0.039 nM | CCC(=O)N[C@H]1CC[C@H](C(=O)N2CC[C@H](O[C@H](C)c3cc(C(F)(F)F)cc(C(F)(F)F)c3)[C@H](c3ccccc3)C2)CC1 [Example 43, N-[trans-4-[[(3R,4S)-4-[(1R)-1-[3,5-Bis(trifluoromethyl)phenyl]ethoxy]-3-phenylpiperidin-1-yl]carbonyl]cyclohexyl]propanamide] | Changes in bladder capacity (vs before administration, %) ([1]; Table 16, 0.01 mg/kg intravenous): 20.8 ± 5.6%; Changes in bladder capacity (vs before administration, %) ([1]; Table 16, 0.03 mg/kg intravenous): 19.3 ± 4.5%; Changes in bladder capacity (vs before administration, %) ([1]; Table 16, 0.1 mg/kg intravenous): 39.9 ± 4.9 %; Changes in bladder capacity (vs before administration, %) ([1]; Table 16, 0.3 mg/kg intravenous): 55.2 ± 13.3 %; Changes in bladder capacity (vs before administration, %) ([1]; Table 16, 1 mg/kg intravenous): 74.3 ± 11.1 % |
| 0.035 nM | C[C@@H](O[C@H]1CCN(C(=O)C2CCN(C3CCOC3=O)CC2)C[C@H]1c1ccccc1)c1cc(C(F)(F)F)cc(C(F)(F)F)c1 (single isomer, unassigned) [Example 34, hydrochloride] | – |
| 0.057 nM | C[C@@H](O[C@H]1CCN(C(=O)[C@H]2CC[C@H](NC(=O)CN3CCCCC3=O)CC2)C[C@H]1c1ccccc1)c1cc(C(F)(F)F)cc(C(F)(F)F)c1 [Example 57, N-[trans-4-[[(3R,4S)-4-[(1R)-1-[3,5-Bis(trifluoromethyl)phenyl]ethoxy]-3-phenylpiperidin-1-yl]carbonyl]cyclohexyl]-2-(2-oxopiperidin-1-yl)acetamide] | – |
| 0.025 nM | CC(=O)NCC(=O)N1CCC(C(=O)N2CC[C@H](O[C@H](C)c3cc(C(F)(F)F)cc(C(F)(F)F)c3)[C@H](c3ccccc3)C2)CC1 [Example 38, N-[2-[4-[[(3R,4S)-4-[(1R)-1-[3,5-Bis(trifluoromethyl)phenyl]ethoxy]-3-phenylpiperidin-1-yl]carbonyl]piperidin-1-yl]-2-oxoethyl]acetamide] | – |
| 0.058 nM | COc1ccc(-n2nnnc2C(F)(F)F)cc1C(C)N[C@H]1CCN(C(=O)C2CCN(C(C)=O)CC2)C[C@H]1c1ccccc1 (single isomer, unassigned) [Example 83] | – |
| 0.072 nM | C[C@@H](O[C@H]1CCN(C(=O)[C@H]2CC[C@H](NC(=O)N(C)C)CC2)C[C@H]1c1ccccc1)c1cc(C(F)(F)F)cc(C(F)(F)F)c1 [Example 66, N′-[trans-4-[[(3R,4S)-4-[(1R)-1-[3,5-Bis(trifluoromethyl)phenyl]ethoxy]-3-phenylpiperidin-1-yl]carbonyl]cyclohexyl]-N,N-dimethylurea] | – |
| 0.094 nM | CNC(=O)[C@H]1CC[C@H](C(=O)N2CC[C@H](O[C@H](C)c3cc(C(F)(F)F)cc(C(F)(F)F)c3)[C@H](c3ccccc3)C2)CC1 [Example 68, trans-4-[[(3R,4S)-4-[(1R)-1-[3,5-Bis(trifluoromethyl)phenyl]ethoxy]-3-phenylpiperidin-1-yl]carbonyl]-N-methylcyclohexanecarboxamide] | – |
| 0.038 nM | C[C@@H](O[C@H]1CCN(C(=O)C2CCN(C(=O)N3CCNC3=O)CC2)C[C@H]1c1ccccc1)c1cc(C(F)(F)F)cc(C(F)(F)F)c1 [Example 40, 1-[[4-[[(3R,4S)-4-[(1R)-1-[3,5-Bis(trifluoromethyl)phenyl]ethoxy]-3-phenylpiperidin-1-yl]carbonyl]piperidin-1-yl]carbonyl]imidazolidin-2-one] | – |
| 0.026 nM | CC(=O)N1CCC(C(=O)N2CC[C@H](O[C@H](C)c3cc(C(F)(F)F)cc(C(F)(F)F)c3)[C@H](c3ccccc3)C2)CC1 [Example 36, (3R,4S)-1-[(1-Acetylpiperidin-4-yl)carbonyl]-4-[(1R)-1-[3,5-bis(trifluoromethyl)phenyl]ethoxy]-3-phenylpiperidine] | – |
| 0.087 nM | CCC(=O)NC1CCN(C(=O)N2CC[C@H](O[C@H](C)c3cc(C(F)(F)F)cc(C(F)(F)F)c3)[C@H](c3ccccc3)C2)CC1 [Example 74, N-[1-[[(3R,4S)-4-[(1R)-1-[3,5-bis(trifluoromethyl)phenyl]ethoxy]-3-phenylpiperidin-1-yl]carbonyl]piperidin-4-yl]propanamide] | – |
| 0.075 nM | CCNC(=O)N[C@H]1CC[C@H](C(=O)N2CC[C@H](O[C@H](C)c3cc(C(F)(F)F)cc(C(F)(F)F)c3)[C@H](c3ccccc3)C2)CC1 [Example 63, N-[trans-4-[[(3R,4S)-4-[(1R)-1-[3,5-Bis(trifluoromethyl)phenyl]ethoxy]-3-phenylpiperidin-1-yl]carbonyl]cyclohexyl]-N′-ethylurea] | – |
